Data: PMC4433804 (Nature chemical biology, 2015)

Target: RPE65 (bovine RPE microsomes as the enzyme source) (Bos taurus, UniProt Q28175)
Assay: in vitro retinoid isomerase activity assay
Type: biochemical

Chain of UniProt Q28175 (Q28175 whole entry): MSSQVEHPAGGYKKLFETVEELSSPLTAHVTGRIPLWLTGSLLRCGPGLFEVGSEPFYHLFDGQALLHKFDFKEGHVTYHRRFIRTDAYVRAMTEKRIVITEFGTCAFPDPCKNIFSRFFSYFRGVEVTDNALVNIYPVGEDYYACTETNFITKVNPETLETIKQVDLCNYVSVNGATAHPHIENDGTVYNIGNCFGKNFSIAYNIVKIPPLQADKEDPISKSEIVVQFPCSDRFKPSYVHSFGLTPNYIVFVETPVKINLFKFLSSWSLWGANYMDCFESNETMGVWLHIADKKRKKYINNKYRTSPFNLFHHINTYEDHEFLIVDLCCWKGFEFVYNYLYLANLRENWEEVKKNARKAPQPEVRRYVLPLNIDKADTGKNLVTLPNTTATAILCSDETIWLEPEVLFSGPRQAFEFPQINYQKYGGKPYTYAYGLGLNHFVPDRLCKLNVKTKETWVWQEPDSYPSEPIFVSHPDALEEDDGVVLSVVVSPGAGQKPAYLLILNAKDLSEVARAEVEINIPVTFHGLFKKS

IC50: 396 ± 58 nM
SMILES: CC1=C(COc2cccc([C@H](O)CCN)c2)C(C)(C)CCC1 [MB-001, (R)-3-amino-1-(3-((2,6,6-trimethylcyclohex-1-en-1-yl)methoxy)phenyl)propan-1-ol]
